Laboratory results taken from PubChem BioAssay AID1963830 (Molecular Pharmacology Branch, DTP, NCI, 2024).

System: 922993-354-T-J3-PDC complex spheroid viability
Experiment: Anticancer human tumor 922993-354-T-J3-PDC patient-derived endometrial carcinoma cell line growth inhibition [POLQ]
Conditions: for IC50: curve of first compound; for viability, T/C: stronger effect = lower value
Outline: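 Three-cell-type spheroids modelling solid tumor plus stroma served as the readout system; POL inhibitors were tested individually and in combination, concentration ranges set by clinical Cmax where known.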
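Further: spheroids exposed to the agents for one week.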
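Wherever viability, T/C is given: 100% = DMSO vehicle control wells.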

CC(=O)O[C@H]1C(=O)[C@@]2(C)[C@H]([C@H](OC(=O)c3ccccc3)[C@]3(O)C[C@H](OC(=O)[C@H](O)[C@@H](NC(=O)c4ccccc4)c4ccccc4)C(C)=C1C3(C)C)[C@]1(OC(C)=O)CO[C@@H]1C[C@@H]2O + Nc1ccc(C#CCN(C(=O)Cc2ncc(C(F)(F)F)cc2C(F)(F)F)c2ccc(F)cc2)nn1
IC50 (second compound 0.0316 µM): > 3 µM | IC50 (second compound 0.1 µM): > 3 µM | IC50 (second compound 0.316 µM): > 3 µM | IC50 (second compound 1 µM): > 3 µM | IC50 (second compound 3.16 µM): > 3 µM | IC50 (second compound 10 µM): > 3 µM | viability, T/C (second compound 0.0316 µM, first compound 0.00949 µM): 105% | viability, T/C (second compound 0.0316 µM, first compound 0.03 µM): 107% | viability, T/C (second compound 0.0316 µM, first compound 0.0949 µM): 102% | viability, T/C (second compound 0.0316 µM, first compound 0.3 µM): 105% | viability, T/C (second compound 0.0316 µM, first compound 0.949 µM): 99% | viability, T/C (second compound 0.0316 µM, first compound 3 µM): 73.4% | viability, T/C (second compound 0.1 µM, first compound 0.00949 µM): 105% | viability, T/C (second compound 0.1 µM, first compound 0.03 µM): 106% | viability, T/C (second compound 0.1 µM, first compound 0.0949 µM): 106% | viability, T/C (second compound 0.1 µM, first compound 0.3 µM): 106% | viability, T/C (second compound 0.1 µM, first compound 0.949 µM): 99.9% | viability, T/C (second compound 0.1 µM, first compound 3 µM): 72.4% | viability, T/C (second compound 0.316 µM, first compound 0.00949 µM): 107% | viability, T/C (second compound 0.316 µM, first compound 0.03 µM): 107% | viability, T/C (second compound 0.316 µM, first compound 0.0949 µM): 104% | viability, T/C (second compound 0.316 µM, first compound 0.3 µM): 103% | viability, T/C (second compound 0.316 µM, first compound 0.949 µM): 96.6% | viability, T/C (second compound 0.316 µM, first compound 3 µM): 78.1% | viability, T/C (second compound 1 µM, first compound 0.00949 µM): 107% | viability, T/C (second compound 1 µM, first compound 0.03 µM): 100% | viability, T/C (second compound 1 µM, first compound 0.0949 µM): 104% | viability, T/C (second compound 1 µM, first compound 0.3 µM): 107% | viability, T/C (second compound 1 µM, first compound 0.949 µM): 91.7% | viability, T/C (second compound 1 µM, first compound 3 µM): 71.4% | viability, T/C (second compound 3.16 µM, first compound 0.00949 µM): 101% | viability, T/C (second compound 3.16 µM, first compound 0.03 µM): 105% | viability, T/C (second compound 3.16 µM, first compound 0.0949 µM): 98.3% | viability, T/C (second compound 3.16 µM, first compound 0.3 µM): 101% | viability, T/C (second compound 3.16 µM, first compound 0.949 µM): 83.7% | viability, T/C (second compound 3.16 µM, first compound 3 µM): 69.8% | viability, T/C (second compound 10 µM, first compound 0.00949 µM): 90.6% | viability, T/C (second compound 10 µM, first compound 0.03 µM): 84.3% | viability, T/C (second compound 10 µM, first compound 0.0949 µM): 69.5% | viability, T/C (second compound 10 µM, first compound 0.3 µM): 69.8% | viability, T/C (second compound 10 µM, first compound 0.949 µM): 60.8% | viability, T/C (second compound 10 µM, first compound 3 µM): 54.8%

COc1cc(C2c3cc4c(cc3C(OC3OC5COC(C)OC5C(O)C3O)C3COC(=O)C23)OCO4)cc(OC)c1O (centres undefined) + Nc1ccc(C#CCN(C(=O)Cc2ncc(C(F)(F)F)cc2C(F)(F)F)c2ccc(F)cc2)nn1
IC50 (second compound 0.0316 µM): > 10 µM | IC50 (second compound 0.1 µM): > 10 µM | IC50 (second compound 0.316 µM): > 10 µM | IC50 (second compound 1 µM): > 10 µM | IC50 (second compound 3.16 µM): > 10 µM | IC50 (second compound 10 µM): 4.39 µM | viability, T/C (second compound 0.0316 µM, first compound 0.0316 µM): 108% | viability, T/C (second compound 0.0316 µM, first compound 0.1 µM): 106% | viability, T/C (second compound 0.0316 µM, first compound 0.316 µM): 101% | viability, T/C (second compound 0.0316 µM, first compound 1 µM): 105% | viability, T/C (second compound 0.0316 µM, first compound 3.16 µM): 90.9% | viability, T/C (second compound 0.0316 µM, first compound 10 µM): 81% | viability, T/C (second compound 0.1 µM, first compound 0.0316 µM): 103% | viability, T/C (second compound 0.1 µM, first compound 0.1 µM): 102% | viability, T/C (second compound 0.1 µM, first compound 0.316 µM): 104% | viability, T/C (second compound 0.1 µM, first compound 1 µM): 98.2% | viability, T/C (second compound 0.1 µM, first compound 3.16 µM): 97.4% | viability, T/C (second compound 0.1 µM, first compound 10 µM): 71.4% | viability, T/C (second compound 0.316 µM, first compound 0.0316 µM): 101% | viability, T/C (second compound 0.316 µM, first compound 0.1 µM): 105% | viability, T/C (second compound 0.316 µM, first compound 0.316 µM): 100% | viability, T/C (second compound 0.316 µM, first compound 1 µM): 104% | viability, T/C (second compound 0.316 µM, first compound 3.16 µM): 94.2% | viability, T/C (second compound 0.316 µM, first compound 10 µM): 76% | viability, T/C (second compound 1 µM, first compound 0.0316 µM): 105% | viability, T/C (second compound 1 µM, first compound 0.1 µM): 103% | viability, T/C (second compound 1 µM, first compound 0.316 µM): 103% | viability, T/C (second compound 1 µM, first compound 1 µM): 100% | viability, T/C (second compound 1 µM, first compound 3.16 µM): 96.1% | viability, T/C (second compound 1 µM, first compound 10 µM): 77% | viability, T/C (second compound 3.16 µM, first compound 0.0316 µM): 103% | viability, T/C (second compound 3.16 µM, first compound 0.1 µM): 97.2% | viability, T/C (second compound 3.16 µM, first compound 0.316 µM): 98% | viability, T/C (second compound 3.16 µM, first compound 1 µM): 95.6% | viability, T/C (second compound 3.16 µM, first compound 3.16 µM): 88% | viability, T/C (second compound 3.16 µM, first compound 10 µM): 67.6% | viability, T/C (second compound 10 µM, first compound 0.0316 µM): 100% | viability, T/C (second compound 10 µM, first compound 0.1 µM): 90.5% | viability, T/C (second compound 10 µM, first compound 0.316 µM): 91.2% | viability, T/C (second compound 10 µM, first compound 1 µM): 75.1% | viability, T/C (second compound 10 µM, first compound 3.16 µM): 62.2% | viability, T/C (second compound 10 µM, first compound 10 µM): 25.3%
